Laboratory results published in patent publication US9745265B2, “4-heteroaryl substituted benzoic acid compounds as RORgammaT inhibitors and uses thereof” (Merck Sharp & Dohme Corp., priority 2012, dated 2017).
Read-outs that look alike come from different tables or passages of the source.

Target: human RORgammaT-Ligand Binding Domain (LBD) (Homo sapiens (Human), UniProt P51449)
Assay: RORγ-Ligand Binding Domain TR-FRET Assay (SRC1_2 co-activator peptide)
Type: biochemical
[1] = HIS-tagged RORγ-LBD 3 nM, biotinylated SRC1 LXXLL peptide 100 nM, incubated overnight at 4° C., 665/615 nm ratio

Sequence of human RORgammaT-Ligand Binding Domain (LBD) (P51449 269-508): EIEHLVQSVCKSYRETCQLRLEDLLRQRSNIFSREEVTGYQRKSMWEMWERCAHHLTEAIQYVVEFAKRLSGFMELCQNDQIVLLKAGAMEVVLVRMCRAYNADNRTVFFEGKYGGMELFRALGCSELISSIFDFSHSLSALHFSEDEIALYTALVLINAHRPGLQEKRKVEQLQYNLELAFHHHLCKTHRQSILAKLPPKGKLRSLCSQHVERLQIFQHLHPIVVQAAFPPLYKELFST

Structure (SMILES)	IC50 [1] [nM]	IC50 [nM]
CN(c1ccc2c(-c3ccc(C(=O)O)cc3F)nn(C(=O)c3c(Cl)cccc3C(F)(F)F)c2c1)S(C)(=O)=O [Example 5G, 4-(1-(2-chloro-6-(trifluoromethyl)benzoyl)-6-(N-methylmethylsulfonamido)-1H-indazol-3-yl)-3-fluorobenzoic acid]	1500	–
CS(=O)(=O)Nc1cc(-c2nn(C(=O)c3c(Cl)cccc3C(F)(F)F)c3cccnc23)ccc1C(=O)O [Example 3B, 4-(1-(2-chloro-6-(trifluoromethyl)benzoyl)-1H-pyrazolo[4,3-b]pyridin-3-yl)-2-(methylsulfonamido)benzoic acid]	–	1650
O=C(O)c1ccc(-c2nn(C(=O)c3c(Cl)cccc3C(F)(F)F)c3cc(N4CCOCC4)ccc23)cc1 [Example 4H, 4-(1-(2-chloro-6-(trifluoromethyl)benzoyl)-6-morpholino-1H-indazol-3-yl)benzoic acid]	4320	–
CC(C)(C)OC(=O)Nc1cnc2c(-c3ccc(C(=O)O)cc3F)nn(C(=O)c3c(Cl)cccc3C(F)(F)F)c2c1 [Example 29A, 4-(6-(tert-butoxycarbonylamino)-1-(2-chloro-6-(trifluoromethyl)benzoyl)-1H-pyrazolo[4,3-b]pyridin-3-yl)-3-fluorobenzoic acid]	191	–
O=C1CCN(C(=O)c2ccc3c(-c4ccc(C(=O)O)cc4F)nn(C(=O)c4c(Cl)cccc4C(F)(F)F)c3c2)CC1 [Example 2C, 4-(1-(2-chloro-6-(trifluoromethyl)benzoyl)-6-(4-oxopiperidine-1-carbonyl)-1H-indazol-3-yl)-3-fluorobenzoic acid]	4	–
COCC(=O)n1nc(-c2ccc(C(=O)O)cc2F)c2ccccc21 [Example 1J, 3-fluoro-4-[1-(methoxy-acetyl)-1H-indazol-3-yl]benzoic acid]	–	5570
Cc1cc(N(C)C)cc(Cl)c1C(=O)n1nc(-c2ccc(C(=O)O)cc2F)c2ncccc21 [Example 42A, 4-(1-(2-chloro-4-(dimethylamino)-6-methylbenzoyl)-1H-pyrazolo[4,3-b]pyridin-3-yl)-3-fluorobenzoic acid]	2320	–
O=C(O)c1ccc(-c2nn(C(=O)c3cccc4ccoc34)c3ccccc23)c(F)c1 [Example 1S, 4-[1-(1-benzofuran-7-ylcarbonyl)-1H-indazol-3-yl]-3-fluorobenzoic acid]	–	1480
C[C@@H]1CN(C(=O)c2ccc3c(-c4ccc(C(=O)O)cc4F)nn(C(=O)c4c(Cl)cccc4C(F)(F)F)c3c2)C[C@H](C)O1 [Example 2B, 4-(1-(2-chloro-6-(trifluoromethyl)benzoyl)-6-((2S,6R)-2,6-dimethylmorpholine-4-carbonyl)-1H-indazol-3-yl)-3-fluorobenzoic acid]	–	15
O=C(O)c1ccc(-c2nn(C(=O)c3c(Cl)cccc3OC3CC3)c3ccccc23)cc1 [Example 1H, 4-(1-(2-chloro-6-cyclypropoxybenzoyl)-1H-indazol-3-yl)benzoic acid]	–	39
CC(O)C#Cc1ccc2c(-c3ccc(C(=O)O)cc3F)nn(C(=O)c3c(Cl)cccc3C(F)(F)F)c2c1 (stereo not drawn) [Example 12A, 4-(1-(2-chloro-6-(trifluoromethyl)benzoyl)-6-(3-hydroxybut-1-ynyl)-1H-indazol-3-yl)-3-fluorobenzoic acid]	105	–
CC(=O)Nc1cc(-c2nn(C(=O)c3c(Cl)cccc3C(F)(F)F)c3ccccc23)ccc1C(=O)O [Example 3A, 2-acetamido-4-(1-(2-chloro-6-(trifluoromethyl)benzoyl)-1H-indazol-3-yl)benzoic acid]	1470	–
CC(C)(C)OC(=O)Nc1cc2c(-c3ccc(C(=O)O)cc3F)cn(C(=O)c3c(Cl)cccc3C(F)(F)F)c2cn1 [Example 28A, 4-(5-(tert-butoxycarbonylamino)-1-(2-chloro-6-(trifluoromethyl)benzoyl)-1H-pyrrolo[2,3-c]pyridin-3-yl)-3-fluorobenzoic acid]	182	–
Cc1cc(N2CCOCC2)cc(Cl)c1C(=O)n1nc(-c2ccc(C(=O)O)cc2F)c2ncccc21 [Example 40A, 4-(1-(2-chloro-6-methyl-4-morpholinobenzoyl)-1H-pyrazolo[4,3-b]pyridin-3-yl)-3-fluorobenzoic acid]	6870	–
CC(C(=O)n1nc(-c2ccc(C(=O)O)cc2F)c2ccccc21)c1ccccc1 (stereo not drawn) [Example 1I, 3-fluoro-4-(1-(2-phenylpropanoyl)-1H-indazol-3-yl)benzoic acid]	–	4320
